Values after ≈ are worked out from the molar mass of the structure shown.
Tests used:
[1] = Microsomal stability in human liver microsomes assessed as intrinsic clearance preincubated for 5 mins followed by NADPH addition measured upto 60 mins by LC-MS/MS analysis; format: ADME, Microsome; settings: time < 65 min, read-out: CLH
[2] = Microsomal stability in rat liver microsomes assessed as intrinsic clearance preincubated for 5 mins followed by NADPH addition measured upto 60 mins by LC-MS/MS analysis; format: ADME, Microsome; settings: time < 65 min, read-out: CLH
[3] = Microsomal stability in mouse liver microsomes assessed as intrinsic clearance preincubated for 5 mins followed by NADPH addition measured upto 60 mins by LC-MS/MS analysis; format: ADME, Microsome; settings: time < 65 min, read-out: CLH
dengue virus type 1 = test: Antiviral activity against DENV-1 TC974#666 infected in african green monkey Vero cells incubated for 24 hrs measured after 3 days post infection; format: functional, organism-based; settings: TC974#666, Vero
dengue virus type 3 = test: Antiviral activity against DENV-3 H87 infected in african green monkey Vero cells incubated for 24 hrs measured after 3 days post infection; format: functional, organism-based
dengue virus type 4 = test: Antiviral activity against DENV-4 H241 infected in african green monkey Vero cells incubated for 24 hrs measured after 3 days post infection; format: functional, organism-based
[4] = Clearance in Sprague-Dawley rat at 2.5 mg/kg, iv measured upto 24 hrs by LC-MS/MS analysis; format: ADME, organism-based; settings: in vivo
[5] = Clearance in CD-1 mouse at 2.5 mg/kg, iv measured for 0.12 to 24 hrs by LC-MS/MS analysis; format: ADME, organism-based; settings: in vivo, time 0.12-24 hrs
[6] = Volume of distribution at steady state in Sprague-Dawley rat at 2.5 mg/kg, iv measured upto 24 hrs by LC-MS/MS analysis; format: ADME, organism-based; settings: in vivo, read-out: Vdss
[7] = Half life in Sprague-Dawley rat at 2.5 mg/kg, iv measured by LC-MS/MS analysis; format: ADME, organism-based; settings: in vivo
[8] = Cmax in Sprague-Dawley rat at 10 mg/kg, po measured upto 24 to 48 hrs by LC-MS/MS analysis; format: ADME, organism-based; design: time upper 48 hrs, dose 10 mg/kg, time lower 24 hrs, route po; settings: in vivo
[9] = AUC last in Sprague-Dawley rat at 10 mg/kg, po measured upto 24 to 48 hrs by LC-MS/MS analysis; format: ADME, organism-based; design: time upper 48 hrs, dose 10 mg/kg, time lower 24 hrs, route po; settings: in vivo
[10] = Oral bioavailability in Sprague-Dawley rat at 10 mg/kg measured upto 24 to 48 hrs by LC-MS/MS analysis; format: ADME, organism-based; settings: in vivo, time 24-48 hrs
[11] = Kinetic solubility of the compound in aqueous buffer at pH 7.4 measured after 4 hrs by UPLC/UV analysis; format: physicochemical; settings: read-out: Kinetic_solubility
[12] = Metabolic stability in human hepatocytes assessed as intrinsic clearance measured per million cells incubated upto 120 mins by MS analysis; format: ADME, cell-based, Hepatocyte; settings: read-out: CLH
[13] = target: Voltage-gated inwardly rectifying potassium channel KCNH2 (Homo sapiens, UniProt Q12809); test: Displacement of [3H]Dofetilide from human ERG; format: toxicity
[14] = Volume of distribution at steady state in CD-1 mouse at 2.5 mg/kg, iv measured for 0.12 to 24 hrs by LC-MS/MS analysis; format: ADME, organism-based; settings: in vivo, time 0.12-24 hrs, read-out: Vdss
[15] = Half life in CD-1 mouse at 2.5 mg/kg, iv measured by LC-MS/MS analysis; format: ADME, organism-based; settings: in vivo
[16] = Cmax in CD-1 mouse at 3 mg/kg, po measured for 0.5 to 24 hrs by LC-MS/MS analysis; format: ADME, organism-based; design: time 0.5-24 hrs, dose 3 mg/kg, route po; settings: in vivo
[17] = AUC last in CD-1 mouse at 3 mg/kg, po measured for 0.5 to 24 hrs by LC-MS/MS analysis; format: ADME, organism-based; design: time upper 24 hrs, time lower 0.5 hrs, dose 3 mg/kg, route po; settings: in vivo
[18] = Oral bioavailability in CD-1 mouse at 3 mg/kg measured for 0.5 to 24 hrs by LC-MS/MS analysis; format: ADME, organism-based; settings: in vivo, time 0.5-24 hrs
[19] = Cmax in CD-1 mouse at 10 mg/kg, po measured for 0.5 to 24 hrs by LC-MS/MS analysis; format: ADME, organism-based; design: dose 10 mg/kg, time 0.5-24 hrs, route po; settings: in vivo
[20] = AUC last in CD-1 mouse at 10 mg/kg, po measured for 0.5 to 24 hrs by LC-MS/MS analysis; format: ADME, organism-based; design: dose 10 mg/kg, time 0.5-24 hrs, route po; settings: in vivo
[21] = Oral bioavailability in CD-1 mouse at 10 mg/kg measured for 0.5 to 24 hrs by LC-MS/MS analysis; format: ADME, organism-based; settings: in vivo, time 0.5-24 hrs
[22] = Cmax in CD-1 mouse at 30 mg/kg, po measured for 0.5 to 24 hrs by LC-MS/MS analysis; format: ADME, organism-based; design: time upper 24 hrs, dose 30 mg/kg, time lower 0.5 hrs, route po; settings: in vivo
[23] = AUC last in CD-1 mouse at 30 mg/kg, po measured for 0.5 to 24 hrs by LC-MS/MS analysis; format: ADME, organism-based; design: time upper 24 hrs, time lower 0.5 hrs, dose 30 mg/kg, route po; settings: in vivo
[24] = Oral bioavailability in CD-1 mouse at 30 mg/kg measured for 0.5 to 24 hrs by LC-MS/MS analysis; format: ADME, organism-based; settings: in vivo, time 0.5-24 hrs
dengue virus type 2 [25] = test: In vivo antiviral activity against DENV-2/RL infected in AG129 mouse assessed as viral load reduction in plasma administered at 30 mg/kg, po bid for 3 days; format: functional; settings: time 3 day
dengue virus type 2 [26] = test: Antiviral activity against DENV-2 16681 expressing eGFP infected in african green monkey Vero cells incubated with cells for 24 hrs followed by viral infection measured after 3 days by laser microscopic analysis; format: functional, organism-based
[27] = Cytotoxicity against african green monkey Vero cells by ATPlite cell viability luminescence assay; format: toxicity, cell-based; settings: chlorocebus sabaeus
[28] = Kinetic solubility of the compound in aqueous buffer at pH 4 measured after 4 hrs by UPLC/UV analysis; format: physicochemical; settings: read-out: Kinetic_solubility
[29] = Kinetic solubility of the compound in aqueous buffer at pH 2 measured after 4 hrs by UPLC/UV analysis; format: physicochemical; settings: read-out: Kinetic_solubility
dengue virus type 2 [30] = test: Antiviral activity against DENV-2 16681 infected in african green monkey Vero cells incubated for 24 hrs measured after 3 days post infection; format: functional, organism-based; settings: Dengue virus, 16681, Vero
dengue virus type 2 [31] = test: In vivo antiviral activity against DENV-2/RL infected in AG129 mouse assessed as viral load reduction administered at 3 to 30 mg/kg, po bid for 3 days; format: functional, organism-based; settings: dose 3-30 mg/kg, time 3.0 day

Voltage-gated inwardly rectifying potassium channel KCNH2, sequence (Q12809 whole entry): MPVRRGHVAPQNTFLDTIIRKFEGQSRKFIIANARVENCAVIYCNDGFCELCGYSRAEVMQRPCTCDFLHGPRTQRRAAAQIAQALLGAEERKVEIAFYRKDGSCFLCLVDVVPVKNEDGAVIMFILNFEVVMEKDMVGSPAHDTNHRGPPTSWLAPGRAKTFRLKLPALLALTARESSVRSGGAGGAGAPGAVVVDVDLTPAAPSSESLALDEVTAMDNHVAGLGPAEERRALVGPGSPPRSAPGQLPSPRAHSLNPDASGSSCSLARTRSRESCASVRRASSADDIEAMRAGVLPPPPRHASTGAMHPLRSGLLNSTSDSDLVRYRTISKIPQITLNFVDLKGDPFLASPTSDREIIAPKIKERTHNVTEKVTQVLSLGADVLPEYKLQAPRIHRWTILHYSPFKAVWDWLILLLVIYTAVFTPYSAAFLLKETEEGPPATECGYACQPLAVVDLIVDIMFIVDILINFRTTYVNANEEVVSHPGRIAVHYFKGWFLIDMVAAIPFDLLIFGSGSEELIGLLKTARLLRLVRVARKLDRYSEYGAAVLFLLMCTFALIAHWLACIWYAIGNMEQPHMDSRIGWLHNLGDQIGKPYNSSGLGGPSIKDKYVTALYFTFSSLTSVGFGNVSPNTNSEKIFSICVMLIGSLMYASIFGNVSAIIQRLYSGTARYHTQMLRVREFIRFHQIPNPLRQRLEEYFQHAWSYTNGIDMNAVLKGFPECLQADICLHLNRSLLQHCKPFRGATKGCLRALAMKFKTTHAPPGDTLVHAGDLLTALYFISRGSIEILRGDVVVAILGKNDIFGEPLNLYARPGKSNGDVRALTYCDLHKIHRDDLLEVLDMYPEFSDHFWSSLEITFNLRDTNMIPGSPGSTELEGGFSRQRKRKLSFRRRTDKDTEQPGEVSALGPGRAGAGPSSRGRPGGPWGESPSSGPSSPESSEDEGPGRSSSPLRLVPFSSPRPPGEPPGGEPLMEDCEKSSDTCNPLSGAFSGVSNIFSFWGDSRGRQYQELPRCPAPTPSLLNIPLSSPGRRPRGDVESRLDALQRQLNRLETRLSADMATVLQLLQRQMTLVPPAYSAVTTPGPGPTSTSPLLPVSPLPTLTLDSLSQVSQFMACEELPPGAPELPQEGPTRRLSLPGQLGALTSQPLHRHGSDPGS

Compound	microsomal CLint [1]	microsomal CLint [2]	microsomal CLint [3]	EC50 (dengue virus type 1)	EC50 (dengue virus type 3)	clearance [4]	clearance [5]	Vd [6]	half-life [7]	Cmax [8]	AUC(0-t) [9]	bioavailability [10]	solubility kinetic at 4 h [11]	EC50 (dengue virus type 2 [26]; Dengue virus, 16681, Vero)	CC50 [27]	solubility kinetic at 4 h [28]	solubility kinetic at 4 h [29]	EC50 (dengue virus type 4; Dengue virus, H241, Vero)	EC50 (dengue virus type 2 [30])	further results
COc1cc(NC(C(=O)c2c[nH]c3cc(F)ccc23)c2ccc(Cl)cc2OC)cc(OCCO)c1 (single isomer, unassigned; (+)) [listing 1 of 2 here]	< 8 µL/min/mg	9 µL/min/mg	32 µL/min/mg	8 nM	63 nM	46.2 mL/min/kg	16.6 mL/min/kg	10.1 L/kg	6.4 h	192 ng/mL	2430 ng·h/mL	69%	1 µM (≈ 0.499 µg/mL)							EC50 (dengue virus type 4; vero): 240 nM; hepatocyte CLint [12]: < 1.9 µL/min/1e6 cells; IC50 [13]: 10000 nM; Vd [14]: 2 L/kg; half-life [15]: 2 h; Cmax [16]: 435 ng/mL; AUC(0-t) [17]: 1410 ng·h/mL; bioavailability [18]: 40%; Cmax [19]: 1720 ng/mL; AUC(0-t) [20]: 6030 ng·h/mL; bioavailability [21]: 52%; Cmax [22]: 5100 ng/mL; AUC(0-t) [23]: 29500 ng·h/mL; bioavailability [24]: 85%; Activity (dengue virus type 2 [25]): 2 log10/ml
COc1cc(NC(C(=O)c2c[nH]c3c(C)c(F)ccc23)c2ccc(F)cc2OC)cc(OCCO)c1 (single isomer, unassigned; (+))	< 8 µL/min/mg	< 8 µL/min/mg	< 8 µL/min/mg			16.4 mL/min/kg		8.5 L/kg	6.5 h	573 ng/mL	8290 ng·h/mL	88%	2 µM (≈ 0.993 µg/mL)	2 nM	5300 nM	3 µM (≈ 1.49 µg/mL)	34 µM (≈ 16.9 µg/mL)			
COc1cc(NC(C(=O)c2c[nH]c3ccccc23)c2ccccc2)cc(OCCO)c1 (stereo not drawn)	< 8 µL/min/mg	37 µL/min/mg	201 µL/min/mg	180 nM	1000 nM	34.7 mL/min/kg	54 mL/min/kg							49 nM	21000 nM			3900 nM	32 nM	
COc1cc(NC(C(=O)c2c[nH]c3cc(F)ccc23)c2ccc(F)cc2)cc(OCCO)c1 (stereo in doubt)	< 8 µL/min/mg	< 8 µL/min/mg	26 µL/min/mg	49 nM	420 nM	13.9 mL/min/kg	37.1 mL/min/kg	7.3 L/kg	6 h	295 ng/mL	4370 ng·h/mL	40%			13000 nM			870 nM	12 nM	EC50 (dengue virus type 2 [26]; vero): 15 nM
COc1cc(NC(C(=O)c2c[nH]c3cc(F)ccc23)c2ccc(Cl)cc2OC)cc(OCCO)c1 (single isomer, unassigned; (+)) [listing 2 of 2 here]																				Activity (dengue virus type 2 [31]): Dose-Dependent Effect
COc1cc(NC(C(=O)c2c[nH]c3cc(F)ccc23)c2ccc(F)cc2OC)cc(OCCO)c1 (stereo not drawn)	< 8 µL/min/mg	30 µL/min/mg	26 µL/min/mg			39.2 mL/min/kg		7.6 L/kg	3.2 h	135 ng/mL	1110 ng·h/mL	26%	18 µM (≈ 8.68 µg/mL)	4 nM	8400 nM	18 µM (≈ 8.68 µg/mL)	69 µM (≈ 33.3 µg/mL)	870 nM	9 nM	
COc1cc(NC(C(=O)c2c[nH]c3c(C)c(Cl)ccc23)c2ccc(F)cc2OC)cc(OCCO)c1 (single isomer, unassigned; (+))	< 8 µL/min/mg	< 8 µL/min/mg	< 8 µL/min/mg			10.7 mL/min/kg		6.5 L/kg	7 h	294 ng/mL	7600 ng·h/mL	54%	< 0.1 µM	1 nM	4100 nM	< 0.1 µM	5 µM (≈ 2.56 µg/mL)			
COc1cc(NC(C(=O)c2c[nH]c3cc(F)ccc23)c2ccc(C)cc2OC)cc(OCCO)c1 (stereo not drawn)																		960 nM	7 nM	
COc1cc(NC(C(=O)c2c[nH]c3cc(F)ccc23)c2ccc(Cl)cc2OC)cc(OCCO)c1 (stereo in doubt; 24)																		360 nM	1 nM	
COc1cc(NC(C(=O)c2c[nH]c3cc(OC)c(C)cc23)c2ccc(F)cc2OC)cc(OCCO)c1 (single isomer, unassigned; (+))	< 8 µL/min/mg	< 8 µL/min/mg	< 8 µL/min/mg			13.6 mL/min/kg		6.5 L/kg	5.7 h	350 ng/mL	4660 ng·h/mL	40%	5 µM (≈ 2.54 µg/mL)	3 nM	7400 nM	5 µM (≈ 2.54 µg/mL)	65 µM (≈ 33.1 µg/mL)			

Source: ChEMBL document CHEMBL5331131, “Discovery of Acyl-Indole Derivatives as Pan-Serotype Dengue Virus NS4B Inhibitors” (J Med Chem, 2023)
